The values below come from US12673961B2 (Agios Pharmaceuticals, Inc., priority 2022, dated 2026).

Each structure is given as a SMILES string.

The assay concerns the target T1, human PAH with the R408W mutation (Homo sapiens, UniProt P00439, R408W).
T1 construct: expressed in transfected cells
T1 sequence (P00439 1-452 R408W): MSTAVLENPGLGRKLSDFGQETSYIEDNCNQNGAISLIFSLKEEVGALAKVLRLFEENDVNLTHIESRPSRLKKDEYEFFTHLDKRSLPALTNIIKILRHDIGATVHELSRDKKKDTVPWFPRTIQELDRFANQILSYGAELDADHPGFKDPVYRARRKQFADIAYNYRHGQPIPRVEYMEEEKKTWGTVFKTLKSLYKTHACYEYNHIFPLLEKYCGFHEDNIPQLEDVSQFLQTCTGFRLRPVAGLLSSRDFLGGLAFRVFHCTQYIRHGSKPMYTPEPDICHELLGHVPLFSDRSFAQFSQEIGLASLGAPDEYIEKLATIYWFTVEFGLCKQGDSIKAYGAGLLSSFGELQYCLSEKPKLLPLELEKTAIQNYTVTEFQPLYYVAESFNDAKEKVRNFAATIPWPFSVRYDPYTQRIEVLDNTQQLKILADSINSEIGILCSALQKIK
In words: Cell Based Phenylalanine Flux Assay.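 Note: Ten-point dose curve from 2-fold serial dilutions, run in duplicate at 0.5% DMSO final, tracer step used 20 µM sepiapterin and 800 µM labeled phenylalanine.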 The settings on record: A375 cells expressing human R408W PAH; 24 hrs with compound, then sepiapterin and 13C9,15N-Phenylalanine for 4 hours; 13C-Tyrosine by LC-MS; average where tested multiple times; read-out: AC50.
The term AC50 denotes the midpoint of the concentration-response curve, whichever way the signal moves. With `Cc1cccnc1-c1nnc(N2CCc3[nH]cnc3[C@H]2c2cc3c(C(F)F)cccn3n2)o1` [Example 2279, (S)-2-(4-(4-(difluoromethyl)pyrazolo[1,5-a]pyridin-2-yl)-1,4,6,7-tetrahydro-5H-imidazo [4,5-c]pyridin-5-yl)-5-(3-methylpyridin-2-yl)-1,3,4-oxadiazole], the AC50 was under 0.5 µM.
For `Cc1cccnc1-c1nnc(N2CCc3[nH]cnc3[C@@H]2c2cc3c(F)cccn3n2)o1` [Example 2281, (R)-2-(4-(4-fluoropyrazolo [1,5-a]pyridin-2-yl)-1,4,6,7-tetrahydro-5H-imidazo [4,5-c]pyridin-5-yl)-5-(3-methylpyridin-2-yl)-1,3,4-oxadiazole] the value was over 5 µM; for `Cc1cccnc1-c1nnc(N2CCc3[nH]cnc3[C@H]2c2cc3c(Cl)cccn3n2)o1` [Example 2287], under 0.5 µM; for `Cc1cc(-c2nnc(C(=O)N3CCc4[nH]cnc4[C@H]3c3cc4c(F)cccn4n3)o2)n[nH]1` [Example 2295, (S)-(4-(4-fluoropyrazolo [1,5-a]pyridin-2-yl)-1,4,6,7-tetrahydro-5H-imidazo[4,5-c]pyridin-5-yl)(5-(5-methyl-1H-pyrazol-3-yl)-1,3,4-oxadiazol-2-yl)methanone], 0.5 to 1 µM.
Next, `Cc1c[nH]nc1-c1nnc(C(=O)N2CCc3[nH]cnc3[C@H]2c2cc3c(F)cccn3n2)o1` [Example 2296, (S)-(4-(4-fluoropyrazolo [1,5-a]pyridin-2-yl)-1,4,6,7-tetrahydro-5H-imidazo[4,5-c]pyridin-5-yl)(5-(4-methyl-1H-pyrazol-3-yl)-1,3,4-oxadiazol-2-yl)methanone]: under 0.5 µM; `Cc1c[nH]nc1-c1nnc(C(=O)N2CCc3[nH]cnc3[C@@H]2c2cc3c(F)cccn3n2)o1` [Example 2297, (R)-(4-(4-fluoropyrazolo [1,5-a]pyridin-2-yl)-1,4,6,7-tetrahydro-5H-imidazo[4,5-c]pyridin-5-yl)(5-(4-methyl-1H-pyrazol-3-yl)-1,3,4-oxadiazol-2-yl)methanone]: over 5 µM; `Cc1cccnc1-c1nnc(N2CCc3[nH]cnc3[C@@H]2c2cc3cccc(Cl)n3n2)o1` [Example 2306, (R)-2-(4-(7-chloropyrazolo [1,5-a]pyridin-2-yl)-1,4,6,7-tetrahydro-5H-imidazo [4,5-c]pyridin-5-yl)-5-(3-methylpyridin-2-yl)-1,3,4-oxadiazole]: over 5 µM.
For `Cc1cccnc1-c1nnc(N2CCc3[nH]cnc3[C@H]2c2cc3cccc(Cl)n3n2)o1` [Example 2307, (S)-2-(4-(7-chloropyrazolo [1,5-a]pyridin-2-yl)-1,4,6,7-tetrahydro-5H-imidazo [4,5-c]pyridin-5-yl)-5-(3-methylpyridin-2-yl)-1,3,4-oxadiazole] the value was under 0.5 µM; for `Cc1cccn2nc([C@H]3c4nc[nH]c4CCN3c3ccccc3)cc12` [Example 2310, (R)-4-(4-methylpyrazolo [1,5-a]pyridin-2-yl)-5-phenyl-4,5,6,7-tetrahydro-1H-imidazo[4,5-c]pyridine], 1 to 5 µM.
Consider `FC(F)Oc1cccn2nc([C@@H]3c4nc[nH]c4CCN3c3cnccn3)cc12` [Example 2319, (S)-4-(4-(difluoromethoxy)pyrazolo[1,5-a]pyridin-2-yl)-5-(pyrazin-2-yl)-4,5,6,7-tetrahydro-1H-imidazo[4,5-c]pyridine], for which the AC50 was under 0.5 µM.
Next, `CC(C)c1nnc(N2CCc3[nH]cnc3[C@H]2c2cc3c(C(F)F)cccn3n2)o1` [Example 2321, (S)-2-(4-(4-(difluoromethyl)pyrazolo[1,5-a]pyridin-2-yl)-1,4,6,7-tetrahydro-5H-imidazo [4,5-c]pyridin-5-yl)-5-isopropyl-1,3,4-oxadiazole]: under 0.5 µM; `Cc1cccc2cc([C@H]3c4nc[nH]c4CCN3c3nnc(C(C)(F)F)o3)nn12` [Example 2328, (R)-2-(1,1-difluoroethyl)-5-(4-(7-methylpyrazolo[1,5-a]pyridin-2-yl)-1,4,6,7-tetrahydro-5H-imidazo[4,5-c]pyridin-5-yl)-1,3,4-oxadiazole]: over 5 µM.
As to `Cc1ncccc1-c1nnc(N2CCc3[nH]cnc3[C@H]2c2cc3cccc(Cl)n3n2)o1` [Example 2330, (S)-2-(4-(7-chloropyrazolo [1,5-a]pyridin-2-yl)-1,4,6,7-tetrahydro-5H-imidazo [4,5-c]pyridin-5-yl)-5-(2-methylpyridin-3-yl)-1,3,4-oxadiazole], the AC50 lay in the range of 0.5 to 1 µM.
Next, `CC(C)c1cccn2nc([C@H]3c4nc[nH]c4CCN3c3nnc(-c4cccnc4F)o3)cc12` [Example 2334, (R)-2-(2-fluoropyridin-3-yl)-5-(4-(4-isopropylpyrazolo[1,5-a]pyridin-2-yl)-1,4,6,7-tetrahydro-5H-imidazo[4,5-c]pyridin-5-yl)-1,3,4-oxadiazole]: over 5 µM; `Cc1cccc(-c2nnc(N3CCc4[nH]cnc4[C@H]3c3cc4ccccn4n3)o2)n1` [Example 2342, (S)-2-(6-methylpyridin-2-yl)-5-(4-(pyrazolo[1,5-a]pyridin-2-yl)-1,4,6,7-tetrahydro-5H-imidazo[4,5-c]pyridin-5-yl)-1,3,4-oxadiazole]: 1 to 5 µM; `Cc1cccc(-c2nnc(N3CCc4[nH]cnc4[C@@H]3c3cc4ccccn4n3)o2)n1` [Example 2343, (R)-2-(6-methylpyridin-2-yl)-5-(4-(pyrazolo[1,5-a]pyridin-2-yl)-1,4,6,7-tetrahydro-5H-imidazo[4,5-c]pyridin-5-yl)-1,3,4-oxadiazole]: over 5 µM.
For `Cc1cccc(-c2nnc(N3CCc4[nH]cnc4[C@@H]3c3cc4c(C)cccn4n3)o2)n1` [Example 2344] the value was over 5 µM; for `Cc1cccc(-c2nnc(N3CCc4[nH]cnc4[C@@H]3c3cc4c(C(F)F)cccn4n3)o2)n1` [Example 2346, (R)-2-(4-(4-(difluoromethyl)pyrazolo[1,5-a]pyridin-2-yl)-1,4,6,7-tetrahydro-5H-imidazo[4,5-c]pyridin-5-yl)-5-(6-methylpyridin-2-yl)-1,3,4-oxadiazole], over 5 µM; for `Cc1cccnc1-c1nnc(N2CCc3[nH]cnc3[C@H]2c2cc3cccc(C(F)F)n3n2)o1` [Example 2352, (S)-2-(4-(7-(difluoromethyl)pyrazolo[1,5-a]pyridin-2-yl)-1,4,6,7-tetrahydro-5H-imidazo [4,5-c]pyridin-5-yl)-5-(3-methylpyridin-2-yl)-1,3,4-oxadiazole], 0.5 to 1 µM.
Next, `Cc1cccn2nc([C@@H]3c4nc[nH]c4CCN3c3nnc(-c4cccc(F)n4)o3)cc12` [Example 2361, (S)-2-(6-fluoropyridin-2-yl)-5-(4-(4-methylpyrazolo[1,5-a]pyridin-2-yl)-1,4,6,7-tetrahydro-5H-imidazo[4,5-c]pyridin-5-yl)-1,3,4-oxadiazole]: under 0.5 µM.
In the case of `O=C(c1nnc(-c2ccc(F)cn2)o1)N1CCc2[nH]cnc2[C@H]1c1cc2ccccn2n1` [Example 2365, (S)-(5-(5-fluoropyridin-2-yl)-1,3,4-oxadiazol-2-yl)(4-(pyrazolo[1,5-a]pyridin-2-yl)-6,7-dihydro-1H-imidazo[4,5-c]pyridin-5(4H)-yl)methanone], the AC50 lay within 1 to 5 µM.
Next, `O=C(c1cn[nH]c1C(F)F)N1CCc2[nH]cnc2[C@H]1c1cc2ccccn2n1` [Example 2366, (S)-(5-(difluoromethyl)-1H-pyrazol-4-yl)(4-(pyrazolo[1,5-a]pyridin-2-yl)-6,7-dihydro-1H-imidazo[4,5-c]pyridin-5(4H)-yl)methanone]: 1 to 5 µM.
For `Cc1ccc2cc([C@H]3c4nc[nH]c4CCN3C(=O)c3nnc(-c4cnn(C)c4)o3)nn2c1` [Example 2381, (R)-(5-(1-methyl-1H-pyrazol-4-yl)-1,3,4-oxadiazol-2-yl)(4-(6-methylpyrazolo[1,5-a]pyridin-2-yl)-6,7-dihydro-1H-imidazo[4,5-c]pyridin-5(4H)-yl)methanone] the value was over 5 µM; for `O=C(c1nnc(C2CC2)o1)N1CCc2[nH]cnc2[C@H]1c1cc2ccc(F)cn2n1` [Example 2404, (S)-(5-cyclopropyl-1,3,4-oxadiazol-2-yl)(4-(6-fluoropyrazolo[1,5-a]pyridin-2-yl)-6,7-dihydro-1H-imidazo[4,5-c]pyridin-5(4H)-yl)methanone], 1 to 5 µM.
Consider `Cn1cc(-c2nnc(C(=O)N3CCc4[nH]cnc4[C@H]3c3cc4ccc(C(F)(F)F)cn4n3)o2)cn1` [Example 2416, (S)-(5-(1-methyl-1H-pyrazol-4-yl)-1,3,4-oxadiazol-2-yl)(4-(6-(trifluoromethyl)pyrazolo[1,5-a]pyridin-2-yl)-6,7-dihydro-1H-imidazo [4,5-c]pyridin-5(4H)-yl)methanone], for which the AC50 is 1 to 5 µM.
As to `O=C(c1nnc(-c2cnn(C(F)(F)F)c2)o1)N1CCc2[nH]cnc2[C@H]1c1cc2cccc(C(F)(F)F)n2n1` [Example 2428, (S)-(5-(1-(trifluoromethyl)-1H-pyrazol-4-yl)-1,3,4-oxadiazol-2-yl)(4-(7-(trifluoromethyl)pyrazolo[1,5-a]pyridin-2-yl)-6,7-dihydro-1H-imidazo[4,5-c]pyridin-5(4H)-yl)methanone], the AC50 was in the range of 1 to 5 µM.
For `CN(C)c1ccc2c(C(=O)N3CCc4[nH]cnc4[C@@H]3c3cc4cccc(Cl)n4n3)cnn2c1` [Example 2475, (R)-(4-(7-chloropyrazolo [1,5-a]pyridin-2-yl)-6,7-dihydro-1H-imidazo[4,5-c]pyridin-5(4H)-yl)(6-(dimethylamino)pyrazolo[1,5-a]pyridin-3-yl)methanone] the value was over 5 µM.
